Experimental data published in patent publication US20240182460A1, “ALLOSTERIC CHROMENONE INHIBITORS OF PHOSPHOINOSITIDE 3-KINASE (PI3K) FOR THE TREATMENT OF DISEASE” (PETRA PHARMA CORPORATION, priority 2022, published 2024).

Experiment: Metabolic stability and intrinsic clearance in human liver microsomes (MICS)
Type: in vitro ADME
Settings: human, microsomes, pH 7.4
Protocol: Metabolic Stability and Intrinsic Clearance in Liver Microsomes (MICS)
One objective of this assay is to measure in vitro metabolic stability of a test compound in liver microsomes of one or more different species. The concentration of a control compound in the reaction system is evaluated by LC/MS/MS for calculating intrinsic clearance of a test compound and estimating the stability of the control compound and test compound in liver microsomes of one or more different species.
Microsomes (MICS). Human Liver Microsomes (HLM), Monkey Liver Microsomes (MKLM), Dog Liver Microsomes (DLM), Rat Liver Microsomes (RLM), and Mouse Liver Microsomes (MLM) are obtained at a concentration of 20 mg/mL protein from commercial sources and stored in a −80° C. freezer. Prior to use, liver microsomes are removed from the freezer and allowed to thaw in a 37° C. water bath and then stored on wet ice.
Stock Solutions. Test Compound (TC) Stock Solutions are prepared in DMSO at a concentration of 10 mM and stored for later use. Positive Control (PC) Stock Solutions of verapamil·HCL (FW: 491.1 g/mol) in DMSO are prepared at a concentration of 10 mM (4.91 mg/mL), and stored at the condition same as the stock solutions of test compounds.
Phosphate Buffer. Phosphate Buffer (100 mM, pH 7.4) is prepared by combining a Solution A and a Solution B as follows.
To prepare Solution A, 7.098 g of disodium hydrogen phosphate was combined with 500 mL of pure water and sonicated to dissolve. To prepare the Solution B, 3.400 g of potassium dihydrogen phosphate was combined with 250 mL of pure water and sonicated to dissolve. Solution A was placed on a stirrer and Solution B was slowly added into Solution A until the pH reached 7.4.
NADPH Solution. A 10 mM NADPH Solution is prepared by dissolving NADPH (MW: 833.4 g/mol) at 8.334 mg/mL in phosphate buffer (100 mM, pH 7.4).
Microsome Master Solution. A Microsome Master Solution is prepared by adding 6.25 μL microsomes (20 mg/mL) to 216.25 μL Phosphate Buffer (100 mM). The final concentration is Phosphate Buffer (100 mM); microsomes (0.5 mg/mL).
Dilution of Stock Solutions. The TC Stock Solutions (10 mM in DMSO) and the PC Stock Solutions (10 mM in DMSO) are diluted by adding 3 μL of the TC Stock Solution or the PC Stock Solution to 297 μL of 50% acetonitrile/50% water.
Incubation. Two separated experiments were performed as follows. a) With Cofactors (NADPH): 25 μL of 10 mM NADPH was added to the incubations. The final concentrations of
microsomes and NADPH were 0.5 mg/mL and 1 mM, respectively. b) Without Cofactors (NADPH): 25 μL of 100 mM Phosphate buffer was added to the incubations. The final concentration of microsomes was 0.5 mg/mL. The mixture was pre-warmed at 37° C. for 10 minutes.
The reaction was started with the addition of 2.5 μL of 100 μM PC solution or TC solutions.
Verapamil was used as PC in this study. The final concentration of test compound or control compound was 1 μM. The incubation solution was incubated in water batch at 37° C.
Reaction Termination. Aliquots of 30 μL were taken from the reaction solution at 0.5, 5, 15, 30 and 60 minutes and added to plates. The reaction was stopped by the addition of 5 volumes of cold acetonitrile and a solution containing 100 nM alprazolam, 200 nM caffeine and 100 nM tolbutamide.
Sampling. The plates containing the terminated reactions were centrifuged at 4000 rpm for 30 minutes. Supernatant of each compound (40 μL) was transferred into a 96-well analysis plate.
Four compound samples are pooled together into one cassette and diluted by adding 160 μL of pure water. All incubations are performed in duplicate.
Analysis and Data Processing. Quantitative LC-MS analysis is performed, and peak areas are determined from extracted ion chromatograms. Percent parent remaining was calculated from peak area of TC or PC. The slope value, k, is determined by linear regression of the natural logarithm of percent parent remaining vs. incubation time curve. […]

Row | microsomal CLint at 1 μM [µL/min/mg] | SMILES
1 | < 50 | Cc1cc([C@@H](C)Oc2ccc(Cl)nc2-c2noc(=O)[nH]2)c2oc(C3CC3)c(C)c(=O)c2c1 [Example 64A, 3-[6-Chloro-3-[(1R)-1-(2-cyclopropyl-3,6-dimethyl-4-oxo-chromen-8-yl)ethoxy]-2-pyridyl]-4H-1,2,4-oxadiazol-5-lone]
2 | < 50 | Cc1cc([C@@H](C)Oc2ccc(Cl)nc2C(N)=O)c2oc(-c3cncnc3)c(C)c(=O)c2c1 [Example 67A, 6-Chloro-3-[(1R)-1-(3,6-dimethyl-4-oxo-2-pyrimidin-5-yl-chromen-8-yl)ethoxy]pyridine-2-carboxamide]
3 | < 50 | Cc1cc([C@@H](C)Oc2ccc(Cl)nc2C(N)=O)c2oc(-c3ccc4[nH]c(=O)ccc4c3)c(C)c(=O)c2c1 [Example 105A, 6-Chloro-3-[(1R)-1-[3,6-dimethyl-4-oxo-2-(2-oxo-1H-quinolin-6-yl)chromen-8-yl]ethoxy]pyridine-2-carboxamide]
4 | < 50 | Cc1cc([C@@H](C)Oc2ccc(Cl)nc2C(N)=O)c2oc(-c3cnn4ncccc34)c(C)c(=O)c2c1 [Example 39C, 6-Chloro-3-[(1R)-1-(3,6-dimethyl-4-oxo-2-pyrazolo[1,5-b]pyridazin-3-yl-chromen-8-yl)ethoxy]pyridine-2-carboxamide]
5 | < 50 | Cc1cc([C@@H](C)Oc2ccc(Cl)nc2C(N)=O)c2oc(-c3cnccn3)c(C)c(=O)c2c1 [Example 78C, 6-Chloro-3-[(1R)-1-(3,6-dimethyl-4-oxo-2-pyrazin-2-yl-chromen-8-yl)ethoxy]pyridine-2-carboxamide]
6 | < 50 | Cc1cc([C@@H](C)Oc2ccc(Cl)nc2-c2noc(=O)[nH]2)c2oc(-c3cnn4c3COCC4)c(C)c(=O)c2c1 [Example 41A, 3-[6-Chloro-3-[(1R)-1-[2-(6,7-dihydro-4H-pyrazolo[5,1-c][1,4]oxazin-3-yl)-3,6-dimethyl-4-oxo-chromen-8-yl]ethoxy]-2-pyridyl]-4H-1,2,4-oxadiazol-5-one]
7 | < 50 | Cc1cc([C@@H](C)Oc2ccc(Cl)nc2S(N)(=O)=O)c2oc(-c3ccn[nH]3)c(C)c(=O)c2c1 [Example 8C, 6-Chloro-3-[(1R)-1-[3,6-dimethyl-4-oxo-2-(1H-pyrazol-5-yl)chromen-8-yl]ethoxy]pyridine-2-sulfonamide]
8 | < 50 | Cc1cc([C@@H](C)Oc2ccc(Cl)nc2-c2noc(=O)[nH]2)c2oc(-c3cnc4scnc4c3)c(C)c(=O)c2c1 [Example 1B, 3-[6-Chloro-3-[(1R)-1-(3,6-dimethyl-4-oxo-2-thiazolo[5,4-b]pyridin-6-yl-chromen-8-yl)ethoxy]-2-pyridyl]-4H-1,2,4-oxadiazol-5-one]
9 | < 50 | Cc1cc([C@@H](C)Oc2ccc(Cl)nc2S(N)(=O)=O)c2oc(-c3cnn(CC4(O)CC4)c3)c(C)c(=O)c2c1 [Example 128C, 6-Chloro-3-[(1R)-1-[2-[1-[(1-hydroxycyclopropyl)methyl]pyrazol-4-yl]-3,6-dimethyl-4-oxo-chromen-8-yl]ethoxy]pyridine-2-sulfonamide]
10 | < 50 | Cc1cc([C@@H](C)Oc2ccc(Cl)nc2S(C)(=N)=O)c2oc(-c3cnn(C)c3)c(C)c(=O)c2c1 (stereo partly drawn) [Example 147A, 8-[(1R)-1-[[6-Chloro-2-(methylsulfonimidoyl)-3-pyridyl]oxy]ethyl]-3,6-dimethyl-2-(1-methylpyrazol-4-yl)chromen-4-one]
11 | < 50 | Cc1cc([C@@H](C)Oc2ccc(Cl)nc2-c2noc(=O)[nH]2)c2oc(-c3cnn4c3CCC4)c(C)c(=O)c2c1 [Example 102A, 3-[6-Chloro-3-[(1R)-1-[2-(5,6-dihydro-4H-pyrrolo[2,1-e]pyrazol-3-yl)-3,6-dimethyl-4-oxo-chromen-8-yl]ethoxy]-2-pyridyl]-4H-1,2,4-oxadiazol-5-one]

The remaining lines, values behind:

Row | SMILES | microsomal CLint at 1 μM [µL/min/mg]
12 | Cc1cc([C@@H](C)Oc2ccc(C#N)cc2C(N)=O)c2oc(-c3ccc4nn(C)cc4c3)c(C)c(=O)c2c1 [Example 108C, 5-Cyano-2-[(1R)-1-[3,6-dimethyl-2-(2-methylindazol-5-yl)-4-oxo-chromen-8-yl]ethoxy]benzamide] | < 50
13 | Cc1cc([C@@H](C)Oc2ccc(Cl)nc2C(N)=O)c2oc(-c3cc(C#N)c4nn(C)cc4c3)c(C)c(=O)c2c1 [Example 52C, 6-Chloro-3-[(1R)-1-[2-(7-cyano-2-methyl-indazol-5-yl)-3,6-dimethyl-4-oxo-chromen-8-yl]ethoxy]pyridine-2-carboxamide] | < 50
14 | CONC(=O)c1nc(Cl)ccc1O[C@H](C)c1cc(C)cc2c(=O)c(C)c(-c3ccc4nn(CCO)cc4c3)oc12 [Example 135C, 6-Chloro-3-[(1R)-1-[2-[2-(2-hydroxyethyl)indazol-5-yl]-3,6-dimethyl-4-oxo-chromen-8-yl]ethoxy]-N-methoxy-pyridine-2-carboxamide] | < 50
15 | Cc1cc([C@@H](C)Oc2ccc(Cl)nc2C(N)=O)c2oc(-c3ccc4c(c3)C(C)(C)OC(=O)N4)c(C)c(=O)c2c1 [Example 47C, 6-Chloro-3-[(1R)-1-[2-(4,4-dimethyl-2-oxo-1H-3,1-benzoxazin-6-yl)-3,6-dimethyl-4-oxo-chromen-8-yl]ethoxy]pyridine-2-carboxamide] | < 50
16 | Cc1cc([C@@H](C)Oc2cccnc2C(N)=O)c2oc(-c3ccc4nn(C)cc4c3)c(C)c(=O)c2c1 [Example 10A, 3-[(1R)-1-[3,6-Dimethyl-2-(2-methylindazol-5-yl)-4-oxo-chromen-8-yl]ethoxy]pyridine-2-carboxamide] | < 50
17 | Cc1cc([C@@H](C)Oc2ccc(Cl)nc2S(N)(=O)=O)c2oc(-c3ccc4nn(C)cc4n3)c(C)c(=O)c2c1 [Example 5B, 6-Chloro-3-[(1R)-1-[3,6-dimethyl-2-(2-methylpyrazolo[4,3-b]pyridin-5-yl)-4-oxo-chromen-8-yl]ethoxy]pyridine-2-sulfonamide] | < 50
18 | Cc1cc([C@@H](C)Oc2ccc(Cl)nc2S(N)(=O)=O)c2oc(-c3ccc(C#N)cc3)c(C)c(=O)c2c1 [Example 25C, 6-Chloro-3-[(1R)-1-[2-(4-cyanophenyl)-3,6-dimethyl-4-oxo-chromen-8-yl]ethoxy]pyridine-2-sulfonamide] | < 50
19 | Cc1cc([C@@H](C)Oc2ccc(Cl)nc2S(N)(=O)=O)c2oc(-c3cccc(C#N)c3)c(C)c(=O)c2c1 [Example 24C, 6-Chloro-3-[(1R)-1-[2-(3-cyanophenyl)-3,6-dimethyl-4-oxo-chromen-8-yl]ethoxy]pyridine-2-sulfonamide] | < 50
20 | Cc1cc([C@@H](C)Oc2ccc(F)nc2C(N)=O)c2oc(-c3ccc4nn(C)cc4c3)cc(=O)c2c1 [Example 19B, 6-Fluoro-3-[(1R)-1-[6-methyl-2-(2-methylindazol-5-yl)-4-oxo-chromen-8-yl]ethoxy]pyridine-2-carboxamide] | < 50
21 | Cc1cc([C@@H](C)Oc2ccc(F)nc2S(N)(=O)=O)c2oc(-c3cnc4ccoc4c3)c(C)c(=O)c2c1 [Example 73C, 6-Fluoro-3-[(1R)-1-(2-furo[3,2-b]pyridin-6-yl-3,6-dimethyl-4-oxo-chromen-8-yl)ethoxy]pyridine-2-sulfonamide] | < 50

Same assay, conditions: pH 7.4; human liver microsomes 0.5 mg/mL, 1 μM compound; read-out: intrinsic clearance in human MICS

Row | microsomal CLint at 1 μM [µL/min/mg] | SMILES
22 | < 50 | Cc1cc([C@@H](C)Oc2ccccc2-c2noc(=O)[nH]2)c2oc(-c3ccccc3)c(C)c(=O)c2c1 [Example 4, 3-[2-[(1R)-1-(3,6-Dimethyl-4-oxo-2-phenyl-chromen-8-yl)ethoxy]phenyl]-4H-1,2,4-oxadiazol-5-one]
